We go through four molecules from article PMC7375689 (Leukemia & lymphoma, 2020).

Read-outs that look alike come from different tables or passages of the source.

For data set [1] the following is noted: single agent vorinostat; cited from earlier work.
Data set [2] is described as follows: Plasma pharmacokinetics of AR-42 in AML patients. Type of data set: in vivo, human. To be noted: for Tmax: median (SD).
The nature of data set [3]: Toxicity and dose limiting toxicity. Format: in vivo, human. To be noted: for dose limiting toxicities (DLTs): cycle 1.
A further data set deals with AML. The data set is described as follows: Clinical response. To be noted: of 13 patients enrolled, AR-42 followed by decitabine; responses all in DL3. Format: in vivo, human.
Data set [4] concerns miR-29b.
The subject of another data set is cancer cells. To be noted: cited from earlier work.
The subject of another data set is AML cell lines. To be noted: cited from earlier work.
Data set [5] concerns miR-29b. To be noted: cited from earlier work.
The conditions of data set [6]: patients with relapsed multiple myeloma; cited from earlier work.
For data set [7] the following is noted: single agent panobinostat; cited from earlier work.
Where [8] appears, read: 20 mg (day 1, 3, 5), Day 1, cycle 1, plasma, geometric mean (SD).
Where [9] appears, read: 20 mg (day 1, 3, 5), Day 5, cycle 1, plasma, geometric mean (SD).
Setting [10] is: 40 mg (day 1, 3, 4, 5), Day 1, cycle 1, plasma, geometric mean (SD).
[11] abbreviates: 40 mg (day 1, 3, 4, 5), Day 5, cycle 1, plasma, geometric mean (SD).
Setting [12] is: 40 mg (day 1, 3, 5), Day 1, cycle 1, plasma, geometric mean (SD).
The mark [13] stands for this setting: 40 mg (day 1, 3, 5), Day 5, cycle 1, plasma, geometric mean (SD).
[14] abbreviates: AR-42 followed by decitabine, all dose levels, 13 AML patients.

As for `O=C(CCCCCCC(=O)Nc1ccccc1)NO` [vorinostat], the “patients who experienced fatigue” value in data set [1] is 52%.
Broadly, the Cmax is the highest concentration seen after dosing. Take AR-42: in data set [2] (setting [8]), the “AUC0–4” value was 1.59 (2.13) μM h, the “AUC0–∞” value was 1.77 (2.34) μM h, the “Cl/F (apparent oral clearance)” value is 36.11 (114.88) L/h and the T1/2 is recorded as 7.36 (0.42) h. In addition, in data set [2] (setting [8]), the “Vz/F (apparent volume of distribution)” value was 381.33 (1238.57) L. In addition, the Tmax in data set [2] (20 mg (day 1, 3, 5), Day 1, cycle 1, plasma) is on record as 2.00 (1.32) h. In addition, in data set [2] (setting [9]), the “AUC0–4” value was 4.19 (0.54) μM h, the “AUC0–∞” value is 4.63 (0.71) μM h, the “Cl/F (apparent oral clearance)” value was 13.84 (2.18) L/h and the Cmax is 350 nM. For the same molecule, in data set [2] (setting [9]), the T1/2 was 6.91 (1.11) h and the “Vz/F (apparent volume of distribution)” value is given as 137.94 (14.39) L. In addition, the Tmax in data set [2] (20 mg (day 1, 3, 5), Day 5, cycle 1, plasma) is 2.00 (1.32) h. In data set [2] (setting [10]), the “AUC0–4” value is on record as 11.33 (3.54) μM h, the “AUC0–∞” value is 12.22 (4.24) μM h, the “Cl/F (apparent oral clearance)” value is on record as 10.48 (2.98) L/h and the Cmax was determined as 1010 nM. Besides, in [2] (setting [10]), the T1/2 is recorded as 7.63 (1.14) h and the “Vz/F (apparent volume of distribution)” value is 120.53 (35.87) L. Further, the Tmax in data set [2] (40 mg (day 1, 3, 4, 5), Day 1, cycle 1, plasma) is on record as 2.00 (2.36) h. Also, in [2] (setting [11]), the “AUC0–4” value is 11.13 (3.36) μM h, the “AUC0–∞” value is 14.42 (7.91) μM h, the “Cl/F (apparent oral clearance)” value is recorded as 8.88 (3.23) L/h and the concentration peaked (Cmax) at 960 nM. Besides, in data set [2] (setting [11]), the T1/2 was 9.98 (6.79) h and the “Vz/F (apparent volume of distribution)” value is recorded as 127.81 (54.36) L. For the same molecule, the Tmax in data set [2] (40 mg (day 1, 3, 4, 5), Day 5, cycle 1, plasma) was 4.00 (2.60) h. For the same molecule, in data set [2] (setting [12]), the “AUC0–4” value is recorded as 7.20 (1.06) μM h, the “AUC0–∞” value is 7.90 (1.10) μM h, the “Cl/F (apparent oral clearance)” value is given as 16.22 (2.15) L/h and the Cmax amounted to 710 nM. Also, in data set [2] (setting [12]), the T1/2 was 6.63 (0.29) h and the “Vz/F (apparent volume of distribution)” value is on record as 155.67 (27.03) L. Also, in data set [2] (40 mg (day 1, 3, 5), Day 1, cycle 1, plasma), the Tmax was 2.00 (1.15) h. Also, in [2] (setting [13]), the “AUC0–4” value is 6.94 (0.64) μM h, the “AUC0–∞” value is on record as 7.71 (1.10) μM h, the “Cl/F (apparent oral clearance)” value is 16.61 (2.22) L/h and the peak level (Cmax) was 860 nM. Besides, in [2] (setting [13]), the T1/2 was 6.93 (1.26) h and the “Vz/F (apparent volume of distribution)” value is on record as 166.11 (9.73) L. Also, in [2] (40 mg (day 1, 3, 5), Day 5, cycle 1, plasma), the Tmax is 1.50 (0.29) h. In addition, the Cmax in data set [2] (read-out: Cmax values, DL1, days 1 and 5) fell in the range of 150 to 350 nM. In [2] (read-out: Cmax values, DL2, days 1 and 5), the Cmax lay within 710 to 860 nM. In data set [2] (read-out: Cmax values, DL3, days 1 and 5), the Cmax was 960 to 1010 nM. For the same molecule, the “patients with worsening hypertension” value in [3] (AR-42 followed by decitabine, 13 AML patients) is listed as 4. Further, in data set [3] (setting [14]), the “Number of Patients with grade ≥ 3 in cycles 1 and 2: Alanine aminotransferase increased” value is given as 1; the “Number of Patients with grade ≥ 3 in cycles 1 and 2: Alkalosis” value was 1; the “Number of Patients with grade ≥ 3 in cycles 1 and 2: Aspartate aminotransferase increased” value is on record as 2; the “Number of Patients with grade ≥ 3 in cycles 1 and 2: Blood bilirubin increased” value is reported as 1. In data set [3] (setting [14]), the “Number of Patients with grade ≥ 3 in cycles 1 and 2: Cardiac troponin increased” value was determined as 1; the “Number of Patients with grade ≥ 3 in cycles 1 and 2: Catheter-related infection” value came out at 2; the “Number of Patients with grade ≥ 3 in cycles 1 and 2: Fall” value was 1; the “Number of Patients with grade ≥ 3 in cycles 1 and 2: Febrile neutropenia” value came to 9. In [3] (setting [14]), the “Number of Patients with grade ≥ 3 in cycles 1 and 2: Heart failure” value was 1; the “Number of Patients with grade ≥ 3 in cycles 1 and 2: Hyperglycemia” value is listed as 3; the “Number of Patients with grade ≥ 3 in cycles 1 and 2: Hypertension” value is listed as 4; the “Number of Patients with grade ≥ 3 in cycles 1 and 2: Hyperuricemia” value was 1. Besides, in data set [3] (setting [14]), the “Number of Patients with grade ≥ 3 in cycles 1 and 2: Hypoalbuminemia” value is recorded as 1; the “Number of Patients with grade ≥ 3 in cycles 1 and 2: Hypokalemia” value is 3; the “Number of Patients with grade ≥ 3 in cycles 1 and 2: Hyponatremia” value was determined as 5; the “Number of Patients with grade ≥ 3 in cycles 1 and 2: Hypophosphatemia” value came out at 2. Moreover, in [3] (setting [14]), the “Number of Patients with grade ≥ 3 in cycles 1 and 2: Hypotension” value stood at 2; the “Number of Patients with grade ≥ 3 in cycles 1 and 2: Hypoxia” value is on record as 6; the “Number of Patients with grade ≥ 3 in cycles 1 and 2: Lung infection” value stood at 5; the “Number of Patients with grade ≥ 3 in cycles 1 and 2: Rash maculo-papular” value was 1. In data set [3] (setting [14]), the “Number of Patients with grade ≥ 3 in cycles 1 and 2: Respiratory failure” value is 1; the “Number of Patients with grade ≥ 3 in cycles 1 and 2: Sepsis” value is listed as 3; the “Number of Patients with grade ≥ 3 in cycles 1 and 2: Sinus tachycardia” value stood at 1; the “Number of Patients with grade ≥ 3 in cycles 1 and 2: Syncope” value is on record as 1. For the same molecule, the “dose limiting toxicities (DLTs)” value in [3] (DL1: AR-42 20 mg daily days 1, 3, 5, then decitabine, 3 patients) was “no DLTs”. Further, in [3] (DL2: AR-42 40 mg daily days 1, 3, 5, then decitabine, 3 patients), the “dose limiting toxicities (DLTs)” value was “no DLTs”. Moreover, in [3] (DL3: AR-42 40 mg daily days 1, 3, 4, 5, then decitabine), the “dose limiting toxicities (DLTs)” value was “One DLT of polymicrobial sepsis and multi-organ failure”. The “patients who also experienced a grade 3 or 4 infection” value in [3] (of the six patients with neutropenia in cycle 1) is on record as 4. Further, the cardiac toxicities entry in data set [3] (patients treated with AR-42) is reported as “minimal cardiac toxicities”. Besides, the “number of patients who achieved a CRi” value with AML is 2. Also, the “increase of at least 100% in miR-29b expression” value in the data set on miR-29b [4] (DL1: AR-42 20 mg days 1, 3, 5, day 5 of cycle 1 over baseline) is “not observed”. In the data set on miR-29b [4] (DL2: AR-42 40 mg days 1, 3, 5, day 5 of cycle 1 over baseline), the “increase in miR-29b expression of at least 100%” value is given as “not observed”. In the data set with miR-29b [4] (DL3: AR-42 40 mg days 1, 3, 4, 5, day 5 of cycle 1 over baseline), the “increase in miR-29b expression” value is on record as “not observed”. In addition, in the data set on miR-29b [4] (all dose levels, current schedule), the “doubling in either the mature or primary miR at day 5 prior to decitabine administration” value is recorded as “did not observe a doubling”. The “correlation between miR-29b ΔΔCT values and Cmax” value with miR-29b [4] (human, in vivo) is “weak correlation”. In the data set on cancer cells, the IC50 entry is reported as “submicromolar”. For the same molecule, in the data set with AML cell lines (AML cell lines), the apoptosis result is “dose dependent apoptosis”; the “effect on cell cycle” value is “cell cycle arrest at both S and G2/M phases”. Moreover, the anti-leukemic activity result in the data set with AML cell lines (sequential administration of AR-42 followed by decitabine, compared to either drug alone) is given as “stronger anti-leukemic activity”. Besides, the miR-29b expression entry in the data set with miR-29b [5] (AML cells, 1 μM AR-42, after 24 h) is reported as “miR-29b induction”. Also, in the data set on miR-29b [5] (Kasumi-1 AML cells, in vitro), the miR-29b expression result is “upregulated”. The miR-29b transcription result with miR-29b [5] (in vitro) is recorded as “increase”.
For the molecule `Cn1cc(CNCC2CCN(c3ncc(C(=O)NO)cn3)CC2)c2ccccc21` [quisinostat], the cardiac events entry in [6] is “grade 3 and 4 cardiac events”.
As for `Cc1[nH]c2ccccc2c1CCNCc1ccc(/C=C/C(=O)NO)cc1` [panobinostat], the “patients who experienced fatigue” value in data set [7] was 47.4%.
